Experimental data as given in the NIST ThermoML archive (doi:10.1016/j.fluid.2005.06.010).

Test: xn = mol fraction of the nth substance listed
Conditions: Fluid (supercritical or subcritical phases), Vibrating tube method

c1ccc2ccccc2c1 [naphthalene] + O=C=O
Conditions	mass density [kg/m3]
328.08 K, 11734 kPa, x1 = 0.0065	526.75
328.08 K, 11815 kPa, x1 = 0.0065	533.03
328.08 K, 11937 kPa, x1 = 0.0065	541.87
328.08 K, 12028 kPa, x1 = 0.0065	548.44
328.08 K, 12127 kPa, x1 = 0.0065	555.07
328.08 K, 12334 kPa, x1 = 0.0065	568.49
328.08 K, 12646 kPa, x1 = 0.0065	586.46
328.08 K, 13208 kPa, x1 = 0.0065	613.74
328.08 K, 13824 kPa, x1 = 0.0065	638.32
328.08 K, 14520 kPa, x1 = 0.0065	661.29
328.08 K, 15410 kPa, x1 = 0.0065	685.64
328.08 K, 16319 kPa, x1 = 0.0065	706.24
328.08 K, 17226 kPa, x1 = 0.0065	723.77
328.08 K, 18128 kPa, x1 = 0.0065	739.05
328.08 K, 19046 kPa, x1 = 0.0065	752.91
328.08 K, 20020 kPa, x1 = 0.0065	766.16
328.08 K, 21002 kPa, x1 = 0.0065	778.22
328.08 K, 21995 kPa, x1 = 0.0065	789.31
328.08 K, 22871 kPa, x1 = 0.0065	798.48
328.08 K, 23424 kPa, x1 = 0.0065	803.93
328.1 K, 10952 kPa, x1 = 0.0038	442.37
328.1 K, 11010 kPa, x1 = 0.0038	448.13
328.1 K, 11054 kPa, x1 = 0.0038	452.8
328.1 K, 11219 kPa, x1 = 0.0038	468.8
328.1 K, 11363 kPa, x1 = 0.0038	482.43
328.1 K, 11517 kPa, x1 = 0.0038	495.77
328.1 K, 11649 kPa, x1 = 0.0038	507.25
328.1 K, 11832 kPa, x1 = 0.0038	521.74
328.1 K, 11972 kPa, x1 = 0.0038	532.31
328.1 K, 12088 kPa, x1 = 0.0038	540.71
328.1 K, 12322 kPa, x1 = 0.0038	556.51
328.1 K, 12538 kPa, x1 = 0.0038	569.79
328.1 K, 12706 kPa, x1 = 0.0038	579.47
328.1 K, 12941 kPa, x1 = 0.0038	591.84
328.1 K, 13117 kPa, x1 = 0.0038	600.49
328.1 K, 13376 kPa, x1 = 0.0038	612.23
328.1 K, 13618 kPa, x1 = 0.0038	622.37
328.1 K, 13925 kPa, x1 = 0.0038	634.21
328.1 K, 14240 kPa, x1 = 0.0038	645.33
328.1 K, 14511 kPa, x1 = 0.0038	654.12
328.1 K, 14850 kPa, x1 = 0.0038	664.35
328.1 K, 15299 kPa, x1 = 0.0038	676.78
328.1 K, 15816 kPa, x1 = 0.0038	689.62
328.1 K, 16314 kPa, x1 = 0.0038	700.83
328.1 K, 16845 kPa, x1 = 0.0038	711.78
328.1 K, 17403 kPa, x1 = 0.0038	722.35
328.1 K, 18014 kPa, x1 = 0.0038	732.96
328.1 K, 18738 kPa, x1 = 0.0038	744.46
328.1 K, 19499 kPa, x1 = 0.0038	755.49
328.1 K, 20377 kPa, x1 = 0.0038	767.2
328.1 K, 21134 kPa, x1 = 0.0038	776.5
328.1 K, 22132 kPa, x1 = 0.0038	787.85
328.1 K, 23017 kPa, x1 = 0.0038	797.14
328.1 K, 24029 kPa, x1 = 0.0038	806.95
328.1 K, 25024 kPa, x1 = 0.0038	815.98
328.11 K, 15028 kPa, x1 = 0.0214	725.95
328.11 K, 15923 kPa, x1 = 0.0214	742.34
328.11 K, 17035 kPa, x1 = 0.0214	759.59
328.11 K, 18008 kPa, x1 = 0.0214	773.1
328.11 K, 19015 kPa, x1 = 0.0214	785.68
328.11 K, 20044 kPa, x1 = 0.0214	797.24
328.11 K, 21022 kPa, x1 = 0.0214	807.22
328.11 K, 22000 kPa, x1 = 0.0214	816.43
328.11 K, 23011 kPa, x1 = 0.0214	825.23
328.11 K, 24023 kPa, x1 = 0.0214	833.49
332.93 K, 18103 kPa, x1 = 0.0198	740.17
332.93 K, 19004 kPa, x1 = 0.0198	753.43
332.93 K, 20061 kPa, x1 = 0.0198	767.37
332.93 K, 21067 kPa, x1 = 0.0198	779.34
332.93 K, 22050 kPa, x1 = 0.0198	789.99
332.93 K, 23026 kPa, x1 = 0.0198	799.71
332.93 K, 23949 kPa, x1 = 0.0198	808.29
332.93 K, 24971 kPa, x1 = 0.0198	817.26
332.95 K, 12055 kPa, x1 = 0.0049	468.83
332.95 K, 13050 kPa, x1 = 0.0049	535.86
332.95 K, 14011 kPa, x1 = 0.0049	584.76
332.95 K, 14979 kPa, x1 = 0.0049	622.27
332.95 K, 16026 kPa, x1 = 0.0049	654.27
332.95 K, 17024 kPa, x1 = 0.0049	679.08
332.95 K, 18017 kPa, x1 = 0.0049	699.78
332.95 K, 18994 kPa, x1 = 0.0049	717.43
332.95 K, 20008 kPa, x1 = 0.0049	733.55
332.95 K, 21018 kPa, x1 = 0.0049	747.87
332.95 K, 22004 kPa, x1 = 0.0049	760.51
